# Measured values reported in publication PMC9030254, “Target Hopping from Protein Kinases to PXR: Identification of Small-Molecule Protein Kinase Inhibitors as Selective Modulators of Pregnane X Receptor from TüKIC Library” (Cells, 2022).
# How the values were obtained:
# Assay in all cases: Kinase profiling
# Assay type in all cases: biochemical
# CDK1/CycA2 = molecular target: T1, CDK1/CycA2 (Homo sapiens, UniProt P06493)
# T1 construct: purchased ProQinase (Freiburg, Germany)
# Method: (§1) The analysis was performed by ProQinase (Freiburg, Germany).
# ERK7 = molecular target: T2, ERK7 (Homo sapiens, UniProt Q8TD08)
# T2 construct: purchased ProQinase (Freiburg, Germany)
# T2 sequence (Q8TD08 1-544): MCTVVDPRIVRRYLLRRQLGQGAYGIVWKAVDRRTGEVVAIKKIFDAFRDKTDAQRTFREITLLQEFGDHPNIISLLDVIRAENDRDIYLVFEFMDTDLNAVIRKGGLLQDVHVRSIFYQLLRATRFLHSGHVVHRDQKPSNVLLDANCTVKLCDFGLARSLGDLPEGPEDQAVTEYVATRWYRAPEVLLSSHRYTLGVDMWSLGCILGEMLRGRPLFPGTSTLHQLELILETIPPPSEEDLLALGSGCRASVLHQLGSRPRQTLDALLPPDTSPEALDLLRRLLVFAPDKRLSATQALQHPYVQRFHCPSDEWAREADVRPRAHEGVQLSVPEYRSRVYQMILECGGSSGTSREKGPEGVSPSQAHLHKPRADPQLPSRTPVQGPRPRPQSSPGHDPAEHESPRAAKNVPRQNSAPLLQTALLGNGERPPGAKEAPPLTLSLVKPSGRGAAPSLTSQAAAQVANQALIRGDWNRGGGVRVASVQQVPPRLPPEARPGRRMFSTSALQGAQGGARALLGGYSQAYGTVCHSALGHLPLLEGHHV
# Method: as §1
# CAMK4 = molecular target: T3, CAMK4 (Homo sapiens, UniProt Q16566)
# T3 construct: purchased ProQinase (Freiburg, Germany)
# T3 sequence (Q16566 1-473): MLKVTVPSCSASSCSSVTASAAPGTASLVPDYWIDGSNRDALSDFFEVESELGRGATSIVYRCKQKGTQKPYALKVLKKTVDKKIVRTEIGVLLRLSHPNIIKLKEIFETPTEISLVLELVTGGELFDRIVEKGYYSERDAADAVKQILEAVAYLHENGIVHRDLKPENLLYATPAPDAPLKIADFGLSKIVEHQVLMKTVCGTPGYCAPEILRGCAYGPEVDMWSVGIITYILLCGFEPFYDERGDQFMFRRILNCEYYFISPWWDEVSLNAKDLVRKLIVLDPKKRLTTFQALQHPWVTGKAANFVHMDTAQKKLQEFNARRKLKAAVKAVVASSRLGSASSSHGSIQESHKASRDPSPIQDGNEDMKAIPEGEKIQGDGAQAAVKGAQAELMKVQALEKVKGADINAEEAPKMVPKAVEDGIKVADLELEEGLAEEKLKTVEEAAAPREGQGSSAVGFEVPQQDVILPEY
# Method: as §1
# TAOK2 = molecular target: T4, TAOK2 (Homo sapiens, UniProt Q9UL54)
# T4 construct: purchased ProQinase (Freiburg, Germany)
# T4 sequence (Q9UL54 1-1235): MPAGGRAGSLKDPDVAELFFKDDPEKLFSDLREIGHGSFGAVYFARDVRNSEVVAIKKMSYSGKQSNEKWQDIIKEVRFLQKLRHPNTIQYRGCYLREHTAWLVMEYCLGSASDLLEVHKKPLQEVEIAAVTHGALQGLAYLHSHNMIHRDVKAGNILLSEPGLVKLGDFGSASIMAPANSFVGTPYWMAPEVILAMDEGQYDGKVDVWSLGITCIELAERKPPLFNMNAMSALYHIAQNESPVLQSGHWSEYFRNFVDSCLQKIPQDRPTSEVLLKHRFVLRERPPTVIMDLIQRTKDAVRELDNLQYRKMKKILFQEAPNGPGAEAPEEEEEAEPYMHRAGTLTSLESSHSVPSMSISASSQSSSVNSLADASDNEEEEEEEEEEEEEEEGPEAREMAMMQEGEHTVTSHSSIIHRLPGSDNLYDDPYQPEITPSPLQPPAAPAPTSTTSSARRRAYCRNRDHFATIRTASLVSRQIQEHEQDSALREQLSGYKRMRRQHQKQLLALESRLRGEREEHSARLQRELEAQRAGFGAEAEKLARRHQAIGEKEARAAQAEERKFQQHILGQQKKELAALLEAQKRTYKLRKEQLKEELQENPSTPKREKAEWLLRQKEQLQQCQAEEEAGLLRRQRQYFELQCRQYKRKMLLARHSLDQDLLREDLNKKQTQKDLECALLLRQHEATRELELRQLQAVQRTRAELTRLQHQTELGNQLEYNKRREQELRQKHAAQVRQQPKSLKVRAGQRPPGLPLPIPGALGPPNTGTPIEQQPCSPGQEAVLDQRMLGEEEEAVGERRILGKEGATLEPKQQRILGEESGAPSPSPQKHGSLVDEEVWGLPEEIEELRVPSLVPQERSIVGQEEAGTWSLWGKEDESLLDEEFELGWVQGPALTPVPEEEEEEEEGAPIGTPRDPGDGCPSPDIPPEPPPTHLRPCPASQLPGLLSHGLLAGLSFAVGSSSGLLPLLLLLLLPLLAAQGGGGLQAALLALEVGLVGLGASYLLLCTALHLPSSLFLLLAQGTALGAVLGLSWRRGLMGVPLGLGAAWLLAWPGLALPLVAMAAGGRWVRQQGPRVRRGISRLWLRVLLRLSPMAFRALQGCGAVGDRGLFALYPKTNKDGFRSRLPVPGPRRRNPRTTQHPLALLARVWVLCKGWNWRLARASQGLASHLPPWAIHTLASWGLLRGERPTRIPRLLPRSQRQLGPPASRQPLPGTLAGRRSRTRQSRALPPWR
# Method: as §1
# T1 sequence (P06493 whole entry): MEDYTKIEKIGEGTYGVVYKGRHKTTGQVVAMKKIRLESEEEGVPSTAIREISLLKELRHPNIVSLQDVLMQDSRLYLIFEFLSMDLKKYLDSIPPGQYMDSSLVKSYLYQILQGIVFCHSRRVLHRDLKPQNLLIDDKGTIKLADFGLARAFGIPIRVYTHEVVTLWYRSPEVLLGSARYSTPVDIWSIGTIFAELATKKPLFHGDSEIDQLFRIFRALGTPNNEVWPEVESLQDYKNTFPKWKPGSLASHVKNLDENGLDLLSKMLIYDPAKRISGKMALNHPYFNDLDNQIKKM
# T1 sequence (P20248 whole entry partner): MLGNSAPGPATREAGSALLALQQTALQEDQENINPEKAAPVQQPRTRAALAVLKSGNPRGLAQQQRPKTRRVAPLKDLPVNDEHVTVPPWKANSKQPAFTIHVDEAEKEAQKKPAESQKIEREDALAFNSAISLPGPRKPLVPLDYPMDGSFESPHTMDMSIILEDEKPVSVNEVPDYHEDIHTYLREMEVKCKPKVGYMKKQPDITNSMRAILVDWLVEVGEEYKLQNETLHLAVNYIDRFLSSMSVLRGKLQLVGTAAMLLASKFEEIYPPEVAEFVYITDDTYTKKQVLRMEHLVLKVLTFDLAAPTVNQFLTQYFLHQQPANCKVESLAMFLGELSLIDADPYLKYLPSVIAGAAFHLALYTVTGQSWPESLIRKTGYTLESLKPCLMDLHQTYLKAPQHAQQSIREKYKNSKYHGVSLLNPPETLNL
SMILES,Residual activity (CDK1/CycA2; 1.0E-05 M),Residual activity (CDK1/CycA2; 1.0E-06 M),Residual activity (ERK7; 1.0E-05 M),Residual activity (ERK7; 1.0E-06 M),Residual activity (CAMK4; 1.0E-05 M),Residual activity (CAMK4; 1.0E-06 M),Residual activity (TAOK2; 1.0E-05 M),Residual activity (TAOK2; 1.0E-06 M)
O=C(Nc1ccc(F)c(Nc2ccc3c(c2)CCCCC3=O)c1)c1cccc(F)c1 [Compound 109],88 % of control,86 % of control,98 % of control,99 % of control,89 % of control,97 % of control,108 % of control,104 % of control
O=C(Cc1ccccc1)Nc1ccc(F)c(Nc2ccc3c(c2)CCCCC3=O)c1 [Compound 100],83 % of control,85 % of control,85 % of control,96 % of control,97 % of control,102 % of control,97 % of control,90 % of control
